Holding throughout (test): biochemical
What all share (set-up): Eurofins KinaseProfiler full panel at Km ATP, residual kinase activity (%) relative to DMSO

The target in one assay is WNK4(h) (Homo sapiens, UniProt Q96J92). An outline of the steps: (§1)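 Radiometric kinase activity assays were run with ATP at Km and compounds at 10 µM, and remaining activity (%) was reported. A separate competitive binding screen measured DNA-tagged kinase displaced from immobilized active-site ligands by qPCR, giving percent kinase still bound at 10 µM compound in DMSO.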
Chain of WNK4(h) (Q96J92 whole entry): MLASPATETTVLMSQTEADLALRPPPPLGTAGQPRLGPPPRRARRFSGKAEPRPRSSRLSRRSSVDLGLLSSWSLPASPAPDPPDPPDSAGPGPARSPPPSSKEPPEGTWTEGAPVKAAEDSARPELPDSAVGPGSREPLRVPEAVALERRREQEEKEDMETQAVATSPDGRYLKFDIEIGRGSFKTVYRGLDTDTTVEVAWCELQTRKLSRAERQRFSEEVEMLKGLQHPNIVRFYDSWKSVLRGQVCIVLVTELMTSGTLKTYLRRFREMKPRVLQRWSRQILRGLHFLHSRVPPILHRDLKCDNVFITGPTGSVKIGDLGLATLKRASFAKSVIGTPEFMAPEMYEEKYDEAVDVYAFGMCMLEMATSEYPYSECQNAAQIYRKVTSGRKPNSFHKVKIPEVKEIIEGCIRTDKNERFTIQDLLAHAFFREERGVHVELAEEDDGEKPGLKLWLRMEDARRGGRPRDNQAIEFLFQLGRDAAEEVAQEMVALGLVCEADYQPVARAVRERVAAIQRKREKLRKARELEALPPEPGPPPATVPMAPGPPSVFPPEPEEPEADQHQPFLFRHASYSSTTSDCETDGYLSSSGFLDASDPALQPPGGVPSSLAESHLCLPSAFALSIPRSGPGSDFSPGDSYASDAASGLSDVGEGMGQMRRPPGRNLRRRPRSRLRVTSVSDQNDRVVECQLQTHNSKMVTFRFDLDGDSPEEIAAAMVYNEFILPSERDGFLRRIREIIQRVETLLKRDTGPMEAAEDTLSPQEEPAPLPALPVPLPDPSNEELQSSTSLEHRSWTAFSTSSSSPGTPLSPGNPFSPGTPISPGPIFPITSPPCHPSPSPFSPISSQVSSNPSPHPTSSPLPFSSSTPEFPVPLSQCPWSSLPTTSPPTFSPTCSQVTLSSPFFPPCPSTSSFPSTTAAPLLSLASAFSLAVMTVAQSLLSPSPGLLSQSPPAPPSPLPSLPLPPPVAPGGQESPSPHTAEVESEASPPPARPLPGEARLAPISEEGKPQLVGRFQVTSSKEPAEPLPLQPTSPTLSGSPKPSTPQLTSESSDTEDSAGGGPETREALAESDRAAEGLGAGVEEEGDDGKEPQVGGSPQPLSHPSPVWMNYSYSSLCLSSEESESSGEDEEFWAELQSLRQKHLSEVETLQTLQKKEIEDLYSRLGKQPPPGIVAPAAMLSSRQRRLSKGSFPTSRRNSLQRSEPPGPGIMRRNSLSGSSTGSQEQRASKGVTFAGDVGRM

Another assay deals with SIK3(h) (Homo sapiens, UniProt Q9Y2K2). In outline:
as §1

A further assay deals with T1, Rsk3(h) (Homo sapiens, UniProt Q15349).
T1 construct: gene RPS6KA2
T1 sequence (Q15349 whole entry): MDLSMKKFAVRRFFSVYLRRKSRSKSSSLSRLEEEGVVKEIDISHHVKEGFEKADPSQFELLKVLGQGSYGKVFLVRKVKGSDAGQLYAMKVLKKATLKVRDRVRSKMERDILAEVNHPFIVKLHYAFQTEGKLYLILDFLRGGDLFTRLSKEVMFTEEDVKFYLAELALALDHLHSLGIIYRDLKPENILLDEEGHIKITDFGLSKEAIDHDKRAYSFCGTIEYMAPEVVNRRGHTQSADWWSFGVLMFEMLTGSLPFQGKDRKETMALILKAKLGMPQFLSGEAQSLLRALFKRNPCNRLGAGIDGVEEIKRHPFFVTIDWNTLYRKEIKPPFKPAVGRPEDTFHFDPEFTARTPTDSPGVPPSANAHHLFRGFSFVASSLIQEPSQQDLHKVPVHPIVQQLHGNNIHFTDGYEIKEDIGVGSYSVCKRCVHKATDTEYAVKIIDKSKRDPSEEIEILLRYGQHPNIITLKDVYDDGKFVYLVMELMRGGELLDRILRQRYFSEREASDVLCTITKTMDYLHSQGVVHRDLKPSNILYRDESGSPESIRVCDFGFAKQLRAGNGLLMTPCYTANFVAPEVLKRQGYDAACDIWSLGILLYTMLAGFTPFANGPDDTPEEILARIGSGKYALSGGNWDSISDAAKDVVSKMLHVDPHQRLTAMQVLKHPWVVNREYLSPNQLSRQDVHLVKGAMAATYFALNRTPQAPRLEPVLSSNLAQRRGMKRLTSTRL
In outline:
as §1

In another assay the target is T2, Pim-1(h) (Homo sapiens, UniProt P11309).
T2 construct: gene PIM1
T2 sequence (P11309 whole entry): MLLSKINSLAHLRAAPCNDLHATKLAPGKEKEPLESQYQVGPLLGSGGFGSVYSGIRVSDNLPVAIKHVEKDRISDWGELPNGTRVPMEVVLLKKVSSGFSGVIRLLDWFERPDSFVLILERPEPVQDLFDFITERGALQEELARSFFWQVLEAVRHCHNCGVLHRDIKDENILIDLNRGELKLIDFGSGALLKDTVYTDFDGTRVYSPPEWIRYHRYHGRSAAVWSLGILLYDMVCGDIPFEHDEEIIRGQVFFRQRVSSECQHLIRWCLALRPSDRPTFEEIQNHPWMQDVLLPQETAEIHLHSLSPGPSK
An outline of the steps:
as §1

The next assay deals with T3, MEK1(h) (Homo sapiens, UniProt Q02750).
T3 construct: gene MAP2K1
T3 sequence (Q02750 whole entry): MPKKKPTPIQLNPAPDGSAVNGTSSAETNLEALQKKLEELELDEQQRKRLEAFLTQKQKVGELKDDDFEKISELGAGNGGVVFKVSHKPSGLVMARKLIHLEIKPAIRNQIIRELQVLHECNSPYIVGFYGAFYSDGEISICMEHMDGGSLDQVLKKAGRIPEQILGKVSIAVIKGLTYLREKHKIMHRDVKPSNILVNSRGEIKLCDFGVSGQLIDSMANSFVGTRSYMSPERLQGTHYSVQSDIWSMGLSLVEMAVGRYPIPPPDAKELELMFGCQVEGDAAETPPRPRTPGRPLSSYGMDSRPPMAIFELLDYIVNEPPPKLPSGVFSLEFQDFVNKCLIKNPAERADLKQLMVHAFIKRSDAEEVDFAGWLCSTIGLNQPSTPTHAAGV
An outline of the steps:
as §1

A further assay addresses T4, PKD3(h) (Homo sapiens, UniProt O94806).
T4 construct: gene PRKD3
T4 sequence (O94806 1-890): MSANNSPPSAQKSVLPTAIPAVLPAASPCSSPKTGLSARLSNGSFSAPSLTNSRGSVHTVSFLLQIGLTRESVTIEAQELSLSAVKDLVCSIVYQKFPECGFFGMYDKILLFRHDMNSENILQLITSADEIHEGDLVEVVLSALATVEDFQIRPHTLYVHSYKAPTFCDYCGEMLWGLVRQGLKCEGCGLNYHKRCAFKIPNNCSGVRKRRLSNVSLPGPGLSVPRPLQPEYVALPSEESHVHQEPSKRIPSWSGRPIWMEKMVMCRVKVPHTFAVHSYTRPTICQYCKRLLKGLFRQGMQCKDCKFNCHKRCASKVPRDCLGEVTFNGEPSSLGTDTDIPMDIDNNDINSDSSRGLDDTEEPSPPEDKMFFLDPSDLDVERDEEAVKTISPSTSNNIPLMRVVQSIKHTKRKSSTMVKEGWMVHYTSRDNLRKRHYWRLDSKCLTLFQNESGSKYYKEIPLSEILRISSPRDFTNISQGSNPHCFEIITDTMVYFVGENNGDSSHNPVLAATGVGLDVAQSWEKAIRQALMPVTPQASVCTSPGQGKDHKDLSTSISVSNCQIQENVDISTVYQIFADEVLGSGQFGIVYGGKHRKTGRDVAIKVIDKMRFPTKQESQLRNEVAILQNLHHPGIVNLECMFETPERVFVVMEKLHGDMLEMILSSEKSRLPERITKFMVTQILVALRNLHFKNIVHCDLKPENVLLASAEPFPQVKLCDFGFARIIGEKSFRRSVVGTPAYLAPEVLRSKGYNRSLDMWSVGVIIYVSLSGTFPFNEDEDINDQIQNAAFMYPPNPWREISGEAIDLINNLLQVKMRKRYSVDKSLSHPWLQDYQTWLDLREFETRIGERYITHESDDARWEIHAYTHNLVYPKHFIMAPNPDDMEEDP
In outline:
as §1

The next assay concerns the target FGFR1(h) (Homo sapiens, UniProt P11362). An outline of the steps: as §1
The target of the next assay is T5, MRCKγ(h) (Homo sapiens, UniProt Q6DT37).
T5 construct: gene CDC42BPG
T5 sequence (Q6DT37 whole entry): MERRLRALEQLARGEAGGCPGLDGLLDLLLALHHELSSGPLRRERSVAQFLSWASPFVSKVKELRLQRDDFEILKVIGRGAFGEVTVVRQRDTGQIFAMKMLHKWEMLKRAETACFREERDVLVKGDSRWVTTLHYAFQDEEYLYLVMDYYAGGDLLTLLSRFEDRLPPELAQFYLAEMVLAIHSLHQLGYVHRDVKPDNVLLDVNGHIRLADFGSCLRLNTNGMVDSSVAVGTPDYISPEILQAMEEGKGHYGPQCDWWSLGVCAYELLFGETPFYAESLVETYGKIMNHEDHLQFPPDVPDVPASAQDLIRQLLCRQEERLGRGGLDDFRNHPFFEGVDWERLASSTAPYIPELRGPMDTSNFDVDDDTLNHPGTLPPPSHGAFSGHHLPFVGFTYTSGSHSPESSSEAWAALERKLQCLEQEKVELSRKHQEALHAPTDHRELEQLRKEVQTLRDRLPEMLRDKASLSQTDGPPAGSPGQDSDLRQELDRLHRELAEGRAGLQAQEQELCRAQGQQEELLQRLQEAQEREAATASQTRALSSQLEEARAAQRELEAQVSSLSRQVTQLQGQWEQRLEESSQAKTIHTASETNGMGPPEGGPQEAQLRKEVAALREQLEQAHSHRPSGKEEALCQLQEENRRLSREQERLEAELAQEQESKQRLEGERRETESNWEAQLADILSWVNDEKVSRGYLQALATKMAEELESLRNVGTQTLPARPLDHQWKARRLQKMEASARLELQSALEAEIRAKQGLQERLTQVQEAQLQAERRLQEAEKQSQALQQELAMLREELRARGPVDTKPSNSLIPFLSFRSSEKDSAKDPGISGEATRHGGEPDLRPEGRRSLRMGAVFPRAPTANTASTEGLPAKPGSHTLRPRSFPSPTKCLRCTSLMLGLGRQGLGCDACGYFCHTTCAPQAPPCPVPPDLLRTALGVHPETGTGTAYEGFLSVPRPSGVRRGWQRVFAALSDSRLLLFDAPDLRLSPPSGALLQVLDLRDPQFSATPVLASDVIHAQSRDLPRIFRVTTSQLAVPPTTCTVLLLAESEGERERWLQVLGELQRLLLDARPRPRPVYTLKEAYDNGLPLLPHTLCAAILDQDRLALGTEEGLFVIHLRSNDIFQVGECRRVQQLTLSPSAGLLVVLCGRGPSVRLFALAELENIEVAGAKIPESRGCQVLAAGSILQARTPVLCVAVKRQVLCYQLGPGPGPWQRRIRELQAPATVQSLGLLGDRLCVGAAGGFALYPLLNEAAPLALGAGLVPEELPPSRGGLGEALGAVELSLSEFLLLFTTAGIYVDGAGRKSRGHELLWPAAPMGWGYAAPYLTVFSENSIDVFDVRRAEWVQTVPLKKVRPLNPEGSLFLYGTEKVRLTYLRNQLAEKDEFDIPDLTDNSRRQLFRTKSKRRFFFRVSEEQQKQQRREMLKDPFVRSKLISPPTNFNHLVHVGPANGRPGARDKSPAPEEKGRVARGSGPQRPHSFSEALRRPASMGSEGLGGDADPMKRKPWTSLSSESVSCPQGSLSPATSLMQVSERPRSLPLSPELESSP
An outline of the steps:
as §1

The mark [1] stands for this setting: read-out: Residual activity (%) 5at.
Where [2] appears, read: read-out: Residual activity (%) 5ay.
[3] abbreviates: read-out: Residual activity (%) 5as.
Setting [4] is: read-out: Residual activity (%) Spautin-1 5aa.

Among the data in PMC7827406, “Structure–Activity Relationship (SAR) Study of Spautin-1 to Entail the Discovery of Novel NEK4 Inhibitors” (International Journal of Molecular Sciences, 2021) are remaining activity values, retold here.

The structures appear in SMILES notation. Like-named read-outs stand apart in the source and are kept apart here.

Chain of FGFR1(h) (P11362 whole entry): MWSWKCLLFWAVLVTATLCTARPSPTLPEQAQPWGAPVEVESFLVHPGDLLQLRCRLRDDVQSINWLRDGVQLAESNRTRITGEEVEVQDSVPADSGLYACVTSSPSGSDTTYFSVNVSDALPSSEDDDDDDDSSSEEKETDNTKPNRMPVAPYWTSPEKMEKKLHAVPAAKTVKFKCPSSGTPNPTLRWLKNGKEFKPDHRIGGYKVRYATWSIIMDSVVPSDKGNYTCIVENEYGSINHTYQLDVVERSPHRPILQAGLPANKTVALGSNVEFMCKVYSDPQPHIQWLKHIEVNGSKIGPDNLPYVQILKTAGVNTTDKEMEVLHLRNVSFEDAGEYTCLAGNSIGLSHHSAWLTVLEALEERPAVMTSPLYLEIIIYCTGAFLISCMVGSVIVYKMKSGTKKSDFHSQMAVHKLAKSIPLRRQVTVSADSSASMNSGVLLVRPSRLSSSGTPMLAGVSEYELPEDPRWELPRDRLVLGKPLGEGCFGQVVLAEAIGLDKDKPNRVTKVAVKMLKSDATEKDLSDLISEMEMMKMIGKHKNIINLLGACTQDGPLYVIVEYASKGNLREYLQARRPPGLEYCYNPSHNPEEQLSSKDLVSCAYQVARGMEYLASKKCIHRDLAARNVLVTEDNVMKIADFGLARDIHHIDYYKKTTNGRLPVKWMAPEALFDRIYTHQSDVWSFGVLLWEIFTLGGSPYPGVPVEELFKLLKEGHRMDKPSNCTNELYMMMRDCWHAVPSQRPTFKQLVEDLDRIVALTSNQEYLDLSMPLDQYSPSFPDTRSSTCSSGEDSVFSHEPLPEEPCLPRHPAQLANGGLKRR

For `Fc1ccc2ncnc(NCCc3ccc(Cl)cc3)c2c1` [5at, N-[2-(4-Chlorophenyl)Ethyl]-6-Fluoro-4-Quinazolinamine], the remaining activity at 10 µM at WNK4(h) (setting [1]) came to 92%; on SIK3(h) (setting [1]) it was 71%; on Rsk3(h) (setting [1]) it was 111%; at Pim-1(h) (setting [1]) it was 70%; at MEK1(h) (setting [1]), 73%; on PKD3(h) (setting [1]), 102%. Also, the remaining activity at 10 µM was found to be 123% at FGFR1(h) (setting [1]) and 102% on MRCKγ(h) (setting [1]).

Take `COc1ccc2ncnc(Nc3cccc(F)c3)c2c1` [5ay, N-(3-Fluorophenyl)-6-Methoxy-4-Quinazolinamine]: the remaining activity at 10 µM at WNK4(h) (setting [2]) was found to be 100%; at SIK3(h) (setting [2]), 81%; at Rsk3(h) (setting [2]) it was 87%; on Pim-1(h) (setting [2]) it was 39%; at MEK1(h) (setting [2]), 93%; on PKD3(h) (setting [2]) it was 91%. Moreover, the remaining activity at 10 µM on FGFR1(h) (setting [2]) came to 81%; on MRCKγ(h) (setting [2]) it was 92%.

In the case of `Fc1ccc(CCNc2ncnc3ccc(F)cc23)cc1` [5as, 6-Fluoro-N-[2-(4-Fluorophenyl)Ethyl]-4-Quinazolinamine], the remaining activity at 10 µM at WNK4(h) (setting [3]) is 94%; at SIK3(h) (setting [3]), 79%; on Rsk3(h) (setting [3]) it was 108%; on Pim-1(h) (setting [3]), 73%; at MEK1(h) (setting [3]), 84%; on PKD3(h) (setting [3]) it was 114%. Moreover, the figures for the remaining activity at 10 µM on FGFR1(h) (setting [3]) and on MRCKγ(h) (setting [3]) were 105% and 98%, respectively.

Turning to `Fc1ccc(CNc2ncnc3ccc(F)cc23)cc1` [5aa, 6-Fluoro-N-(4-fluorobenzyl)-4-Quinazolinamine], the remaining activity at 10 µM at WNK4(h) (setting [4]) turned out to be 105%; at SIK3(h) (setting [4]) it was 95%; on Rsk3(h) (setting [4]) it was 126%; on Pim-1(h) (setting [4]) it was 66%; at MEK1(h) (setting [4]) it was 91%; on PKD3(h) (setting [4]) it was 100%. Besides, the remaining activity at 10 µM on FGFR1(h) (setting [4]) is 91%; on MRCKγ(h) (setting [4]), 105%.
